Reference: ChEMBL document CHEMBL3885881, “DrugMatrix”

Organism: Rattus norvegicus
Test: DrugMatrix - Regimen: Daily Repeat
Assay type: toxicity, organism-based, Sprague-Dawley
Parameters: regimen Daily Repeat, gender Male, age 6-8 weeks
Conditions: in vivo, po, route oral GAVAGE, […]; for ABSOLUTE BASOPHIL / ABSOLUTE EOSINOPHIL / ABSOLUTE LYMPHOCYTE / ABSOLUTE MONOCYTE / ABSOLUTE SEGMENTED NEUTROPHIL / BASOPHIL / EOSINOPHIL / ERYTHROCYTE COUNT / HEMATOCRIT / HEMOGLOBIN / LEUKOCYTE COUNT / LYMPHOCYTE / MEAN CORPUSCULAR HEMOGLOBIN / MEAN CORPUSCULAR HEMOGLOBIN CONCENTRATION / MEAN CORPUSCULAR VOLUME / MONOCYTE / NEUTROPHIL / NUCLEATED RED BLOOD CELLS / PLATELET COUNT: tissue Blood; for ALANINE AMINOTRANSFERASE / ALBUMIN / ALKALINE PHOSPHATASE / ASPARTATE AMINOTRANSFERASE / BLOOD UREA NITROGEN / CARBON DIOXIDE / CHLORIDE / CHOLESTEROL / CREATINE PHOSPHOKINASE / CREATININE / GLUCOSE / LACTATE DEHYDROGENASE / LIPASE / PHOSPHORUS / POTASSIUM / SODIUM / TOTAL BILIRUBIN / TOTAL PROTEIN / URIC ACID: tissue Plasma
[1] = 13 mg/kg, 120 h, dose level Low, time 5 day
[2] = 40 mg/kg, 72 h, dose level High, time 3 day
[3] = 40 mg/kg, 120 h, dose level High, time 5 day

CN(C)c1nc(N(C)C)nc(N(C)C)n1 [ALTRETAMINE]
ABSOLUTE BASOPHIL [1]: 0 CELLS/uL | ABSOLUTE EOSINOPHIL [1]: 0 CELLS/uL | ABSOLUTE LYMPHOCYTE [1]: 9932 CELLS/uL | ABSOLUTE MONOCYTE [1]: 0 CELLS/uL | ABSOLUTE SEGMENTED NEUTROPHIL [1]: 334.67 CELLS/uL | BASOPHIL [1]: 0% | EOSINOPHIL [1]: 0% | ERYTHROCYTE COUNT [1]: 5.3 x10E6/uL | HEMATOCRIT [1]: 32.5% | HEMOGLOBIN [1]: 12.67 G/DL | LEUKOCYTE COUNT [1]: 10.27 x10E3/uL | LYMPHOCYTE [1]: 96.33% | MEAN CORPUSCULAR HEMOGLOBIN [1]: 23.93 pg | MEAN CORPUSCULAR HEMOGLOBIN CONCENTRATION [1]: 38.97 G/DL | MEAN CORPUSCULAR VOLUME [1]: 61.4 fL | MONOCYTE [1]: 0% | NEUTROPHIL [1]: 3.67% | NUCLEATED RED BLOOD CELLS [1]: 0 /100WBC | PLATELET COUNT [1]: 759.33 x10E3/uL | ALANINE AMINOTRANSFERASE [1]: 60.67 u/L | ALBUMIN [1]: 4.13 G/DL | ALKALINE PHOSPHATASE [1]: 323.67 u/L | ASPARTATE AMINOTRANSFERASE [1]: 87 u/L | BLOOD UREA NITROGEN [1]: 13.33 mg/dL | CARBON DIOXIDE [1]: 29.67 mmol/L | CHLORIDE [1]: 98 MEQ/L | CHOLESTEROL [1]: 69.67 mg/dL | CREATINE PHOSPHOKINASE [1]: 230.33 u/L | CREATININE [1]: 0.15 mg/dL | GLUCOSE [1]: 150 mg/dL | LACTATE DEHYDROGENASE [1]: 137.67 u/L | LIPASE [1]: 22 u/L | PHOSPHORUS [1]: 10.3 mg/dL | POTASSIUM [1]: 5.84 MEQ/L | SODIUM [1]: 143.3 MEQ/L | TOTAL BILIRUBIN [1]: 0.1 mg/dL | TOTAL PROTEIN [1]: 5.83 G/DL | URIC ACID [1]: 0.87 mg/dL | ABSOLUTE BASOPHIL [2]: 0 CELLS/uL | ABSOLUTE EOSINOPHIL [2]: 41 CELLS/uL | ABSOLUTE LYMPHOCYTE [2]: 13401 CELLS/uL | ABSOLUTE MONOCYTE [2]: 108.67 CELLS/uL | ABSOLUTE SEGMENTED NEUTROPHIL [2]: 749.33 CELLS/uL | BASOPHIL [2]: 0% | EOSINOPHIL [2]: 0.33% | ERYTHROCYTE COUNT [2]: 5.98 x10E6/uL | HEMATOCRIT [2]: 37.43% | HEMOGLOBIN [2]: 14.53 G/DL | LEUKOCYTE COUNT [2]: 14.3 x10E3/uL | LYMPHOCYTE [2]: 93.67% | MEAN CORPUSCULAR HEMOGLOBIN [2]: 24.33 pg | MEAN CORPUSCULAR HEMOGLOBIN CONCENTRATION [2]: 38.83 G/DL | MEAN CORPUSCULAR VOLUME [2]: 62.7 fL | MONOCYTE [2]: 0.67% | NEUTROPHIL [2]: 5.33% | NUCLEATED RED BLOOD CELLS [2]: 0 /100WBC | PLATELET COUNT [2]: 1084 x10E3/uL | ALANINE AMINOTRANSFERASE [2]: 107.67 u/L | ALBUMIN [2]: 4.17 G/DL | ALKALINE PHOSPHATASE [2]: 335.33 u/L | ASPARTATE AMINOTRANSFERASE [2]: 98.67 u/L | BLOOD UREA NITROGEN [2]: 12.33 mg/dL | CARBON DIOXIDE [2]: 26.33 mmol/L | CHLORIDE [2]: 100.67 MEQ/L | CHOLESTEROL [2]: 73 mg/dL | CREATINE PHOSPHOKINASE [2]: 457.67 u/L | CREATININE [2]: 0.17 mg/dL | GLUCOSE [2]: 160.67 mg/dL | LACTATE DEHYDROGENASE [2]: 170.67 u/L | LIPASE [2]: 10.67 u/L | PHOSPHORUS [2]: 10.97 mg/dL | POTASSIUM [2]: 6.05 MEQ/L | SODIUM [2]: 140.73 MEQ/L | TOTAL BILIRUBIN [2]: 0.2 mg/dL | TOTAL PROTEIN [2]: 5.73 G/DL | URIC ACID [2]: 1.97 mg/dL | ABSOLUTE BASOPHIL [3]: 0 CELLS/uL | ABSOLUTE EOSINOPHIL [3]: 0 CELLS/uL | ABSOLUTE LYMPHOCYTE [3]: 8752.67 CELLS/uL | ABSOLUTE MONOCYTE [3]: 0 CELLS/uL | ABSOLUTE SEGMENTED NEUTROPHIL [3]: 580.67 CELLS/uL | BASOPHIL [3]: 0% | EOSINOPHIL [3]: 0% | ERYTHROCYTE COUNT [3]: 5.98 x10E6/uL | HEMATOCRIT [3]: 36.53% | HEMOGLOBIN [3]: 14.1 G/DL | LEUKOCYTE COUNT [3]: 9.33 x10E3/uL | LYMPHOCYTE [3]: 94.33% | MEAN CORPUSCULAR HEMOGLOBIN [3]: 23.67 pg | MEAN CORPUSCULAR HEMOGLOBIN CONCENTRATION [3]: 38.6 G/DL | MEAN CORPUSCULAR VOLUME [3]: 61.23 fL | MONOCYTE [3]: 0% | NEUTROPHIL [3]: 5.67% | NUCLEATED RED BLOOD CELLS [3]: 0 /100WBC | PLATELET COUNT [3]: 779.67 x10E3/uL | ALANINE AMINOTRANSFERASE [3]: 65.33 u/L | ALBUMIN [3]: 4 G/DL | ALKALINE PHOSPHATASE [3]: 406 u/L | ASPARTATE AMINOTRANSFERASE [3]: 87.67 u/L | BLOOD UREA NITROGEN [3]: 12.67 mg/dL | CARBON DIOXIDE [3]: 34 mmol/L | CHLORIDE [3]: 97.67 MEQ/L | CHOLESTEROL [3]: 55.33 mg/dL | CREATINE PHOSPHOKINASE [3]: 274.33 u/L | CREATININE [3]: 0.15 mg/dL | GLUCOSE [3]: 151 mg/dL | LACTATE DEHYDROGENASE [3]: 133.67 u/L | LIPASE [3]: 10 u/L | PHOSPHORUS [3]: 10.63 mg/dL | POTASSIUM [3]: 5.18 MEQ/L | SODIUM [3]: 142.9 MEQ/L | TOTAL BILIRUBIN [3]: 0.17 mg/dL | TOTAL PROTEIN [3]: 5.77 G/DL | URIC ACID [3]: 0.47 mg/dL
